Test results: patent US7452865B2, “Antagonistic analogs of GH RH (2003)” (The Administrare's of the Tulane Educational Fund, priority 2004, dated 2008)
Where “and” joins values, the source holds several entries; their conditions need not be identical. Equal values may be shown once.

System: hGH-RH(1-29)NH2 induced GH release
Test: Inhibition of GH release in superfused rat pituitary system
Format: cell-based
Details: for endocrine antagonistic potency: inhibition of the GH release stimulated by hGH-RH(1-29)NH2 (in words): general statement, in vitro and in vivo
Description: The analogs were tested in vitro in a test described earlier (S. Vigh and A. V Schally, Peptides 5:241-[…], 1984) with modification (Z. Rekasi and A. V. Schally, P.N.A.S. 90:2146-2149, 1993).
Briefly, the cells are preincubated with peptides for 9 minutes (3 mL) at various concentrations. Immediately after the incubation, 1 nM hGH-RH(1-29)NH2 is administered for 3 minutes (1 mL) 10 minute response). To check the duration of the antagonistic effect of the analogue, 1 nM hGH-RH(1-29)NH2 is applied 30, 60, 90, and 120 minutes later for 3 minutes [30, 60, 90, 120 min responses]. Net integral values of the GH responses are evaluated. GH responses are compared to and expressed as percent of the original GH response induced by 1 nM GH-RH(1-29)NH2 The effect of the new antagonists are compared to that of [Ac-Tyr^1, D-Arg^2]hGH-RH(1-29)NH2, the “Standard antagonist”.
Rat GH levels in aliquots of undiluted and diluted superfusion samples were measured by double-antibody radioimmunoassay using materials supplied by the National Hormone and Pituitary Program, Baltimore, Md. The results of RIA were analyzed with a computer program developed in our institute (V. Csernus and A. V. Schally, in Neuroendocrine Research Methods, Harwood Academic (Greenstein, B. D. ed., London, pp. 71-109, 1991), hereby incorporated by reference.

[1] = antagonist 30 nM, 1 nM hGH-RH(1-29)NH2 at 0 min
[2] = antagonist 30 nM, 1 nM hGH-RH(1-29)NH2 at 30 min
[3] = antagonist 30 nM, 1 nM hGH-RH(1-29)NH2 at 60 min
[4] = antagonist 30 nM, 1 nM hGH-RH(1-29)NH2 at 90 min
[5] = antagonist 30 nM, 1 nM hGH-RH(1-29)NH2 at 120 min

| Substance | GH response (% of control) 0 min [1] | GH response (% of control) 30 min [2] | GH response (% of control) 60 min [3] | GH response (% of control) 90 min [4] | GH response (% of control) 120 min [5] | GH response (% of control) 0 min (antagonist 10 nM, 0 min) | GH response (% of control) 30 min (antagonist 10 nM, 30 min) | GH response (% of control) 60 min (antagonist 10 nM, 60 min) | GH response (% of control) 90 min (antagonist 10 nM, 90 min) | GH response (% of control) 120 min (antagonist 10 nM, 120 min) | endocrine antagonistic potency: inhibition of the GH release stimulated by hGH-RH(1-29)NH2 (in words) |
| --- | --- | --- | --- | --- | --- | --- | --- | --- | --- | --- | --- |
| [Hca-Tyr^1, D-Arg^2, Phe(pCl)^6, Har^9, Tyr(Me)^10, Abu^15, Nle^27, D-Arg^28, Agm^29]hGH-RH(1-29) [Peptide 51] | 64 % of control and 52 % of control and 87 % of control | 36 % of control and 43 % of control and 35 % of control | 31 % of control and 57 % of control and 46 % of control | 56 % of control and 51 % of control | 58 % of control and 61 % of control |  |  |  |  |  |  |
| [Hca-Tyr^1, D-Arg^2, Phe(pCl)^6, Har^9, Tyr(Me)^10, Abu^15, Nle^27, D-Arg^28, Har^29, Agm^30]hGH-RH(1-30) [Peptide 59] | 72 % of control and 61 % of control and 93 % of control and 47 % of control | 49 % of control and 50 % of control and 43 % of control and 27 % of control | 46 % of control and 48 % of control and 60 % of control and 37 % of control | 38 % of control and 47 % of control and 57 % of control and 44 % of control | 76 % of control and 47 % of control |  |  |  |  |  |  |
| [Hca-Tyr^1, D-Arg^2, Phe(pCl)^6, Har^9, Tyr(Me)^10, Abu^15, Nle^27, D-Arg^28, Har^29, D-Arg^30]hGH-RH(1-29)NH2 [Peptide 58] | 78 % of control and 94 % of control and 64 % of control | 53 % of control and 41 % of control | 56 % of control and 57 % of control and 59 % of control | 47 % of control and 64 % of control and 50 % of control | 64 % of control and 69 % of control |  |  |  |  |  |  |
| [Hca-Tyr^1, D-Arg^2, Phe(pCl)^6, Har^9, Tyr(Me)^10, Abu^15, Nle^27, D-Arg^28, Har^29, Har^30]hGH-RH(1-30)NHEt [Peptide 56] | 76 % of control | 83 % of control | 92 % of control | 80 % of control | 68 % of control |  |  |  |  |  |  |
| [Hca-Tyr^1, D-Arg^2, Phe(pCl)^6, Har^9, Tyr(Me)^10, Abu^15, Nle^27, D-Arg^28, Har^29]hGH-RH(1-29)NH2 [Peptide 45] | 91 % of control and 100 % of control | 100 % of control | 100 % of control | 100 % of control | 99 % of control |  |  |  |  |  |  |
| [Ipa-Tyr^1, D-Arg^2, Phe(pCl)^6, Har^9, Tyr(Me)^10, Abu^15, Nle^27, D-Arg^28, Har^29, Har^30]hGH-RH(1-30)NH2 [Peptide 55] | 93 % of control | 63 % of control | 96 % of control | 61 % of control | 93 % of control |  |  |  |  |  |  |
| [PhAc-Arg^0, D-Arg^2, Phe(pCl)^6, Arg^9, Abu^15, Nle^27, D-Arg^28, Har^29]hGH-RH(1-29)NH2 [Peptide 18] | 21 % of control | 71 % of control | 61 % of control | 75 % of control | 63 % of control |  |  |  |  |  |  |
| [PhAc-D-Arg^0, D-Arg^2, Phe(pCl)^6, Arg^9, Abu^15, Nle^27, D-Arg^28, Har^29]hGH-RH(1-29)NH2 [Peptide 19] | 62 % of control | 64 % of control | 66 % of control | 82 % of control | 74 % of control |  |  |  |  |  |  |
| [PhAc-Tyr^1, D-Arg^2, Phe(pCl)^5, Har^9, Tyr(Me)^10, Cit^11, Abu^15, Nle^27, D-Arg^28, Har^29]hGH-RH(1-29)NH2 [Peptide 65] | 67 % of control | 80 % of control | 89 % of control | 97 % of control | 79 % of control |  |  |  |  |  |  |
| [PhAc-Tyr^1, D-Arg^2, Phe(pCl)^6, Abu^8, Arg^9, Abu^15, Nle^27, D-Arg^28, Har^29]hGH-RH(1-29)NH2 [Peptide 27] | 19 % of control | 15 % of control | 23 % of control | 23 % of control | 61 % of control |  |  |  |  |  |  |
| [PhAc-Tyr^1, D-Arg^2, Phe(pCl)^6, Amp^9, Abu^15, Nle^27, D-Arg^28, Har^29]hGH-RH(1-29)NH2 [Peptide 68] | 37 % of control | 22 % of control | 33 % of control | 29 % of control | 33 % of control |  |  |  |  |  |  |
| [PhAc-Tyr^1, D-Arg^2, Phe(pCl)^6, Arg^9, Abu^15, Nle^27, D-Arg^28, Har^29]hGH-RH(1-29)NHEt [Peptide 48] | 22 % of control | 21 % of control | 44 % of control | 44 % of control | 47 % of control |  |  |  |  |  |  |
| [PhAc-Tyr^1, D-Arg^2, Phe(pCl)^6, Arg^9, Abu^15, Nle^27, Har^28, D-Arg^29, hGH-RH(1-29)NH2 [Peptide 15] | 28 % of control | 13 % of control | 11 % of control | 36 % of control | 21 % of control |  |  |  |  |  |  |
| [PhAc-Tyr^1, D-Arg^2, Phe(pCl)^6, Arg^9, Amp^10, Abu^15, Nle^27, D-Arg^28, Har^29]hGH-RH(1-29)NH2 [Peptide 30] | 18 % of control | 11 % of control | 7 % of control | 7 % of control | 8 % of control | 60 % of control | 24 % of control | 34 % of control | 32 % of control | 53 % of control | high endocrine antagonistic potencies |
| [PhAc-Tyr^1, D-Arg^2, Phe(pCl)^6, Arg^9, Cha^10, Abu^15, Nle^27, D-Arg^28, Har^29]hGH-RH(1-29)NH2 [Peptide 33] | 97 % of control | 89 % of control | 78 % of control | 97 % of control | 82 % of control |  |  |  |  |  |  |
| [PhAc-Tyr^1, D-Arg^2, Phe(pCl)^6, Arg^9, His^10, Abu^15, Nle^27, D-Arg^28, Har^29]hGH-RH(1-29)NH2 [Peptide 32] | 28 % of control | 43 % of control | 69 % of control | 76 % of control |  |  |  |  |  |  |  |
| [PhAc-Tyr^1, D-Arg^2, Phe(pCl)^6, Cit^8, Arg^9, Abu^15, Nle^27, D-Arg^28, Har^29]hGH-RH(1-29)NH2 [Peptide 21] | 0 % of control | 13 % of control | 33 % of control | 43 % of control | 37 % of control |  |  |  |  |  | high endocrine antagonistic potencies |
| [PhAc-Tyr^1, D-Arg^2, Phe(pCl)^6, Cit^8, Arg^9, Abu^15, Nle^27, Har^28, D-Arg^29]hGH-RH(1-29)NH2 [Peptide 23] | 55 % of control | 40 % of control | 41 % of control | 47 % of control | 41 % of control |  |  |  |  |  |  |
| [PhAc-Tyr^1, D-Arg^2, Phe(pCl)^6, Cit^8, Cit^9, Abu^15, Nle^27, Har^28, D-Arg^29]hGH-RH(1-29)NH2 [Peptide 24] | 56 % of control | 13 % of control | 18 % of control | 34 % of control | 60 % of control |  |  |  |  |  |  |
